# Data reported in US8754242B2, “Herbicides” (Syngenta Crop Protection LLC, priority 2007, dated 2014).
# Key:
# Format in all cases: in vivo
# [1] = tested on: Alopecurus myosuroides (ALOMY); test: Test Example 1 pre-emergence herbicidal activity; conditions: Alopecurus myosuroides, 480 h, rate 250 g/ha, evaluated 20 days later, read-out: Pre-emergence activity ALOMY (100=total damage to plant; 0=no damage to plant)
# Method in brief: (§1)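 Greenhouse pot test; spray application pre-emergence (1 d after sowing) or post-emergence (10 d growth). Rating 0–100% damage; pre read at 20 d, post at 15 d.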
# [2] = tested on: Avena fatua (AVEFA); test: Test Example 1 pre-emergence herbicidal activity; conditions: Avena fatua, 480 h, rate 250 g/ha, evaluated 20 days later, read-out: Pre-emergence activity AVEFA (100=total damage to plant; 0=no damage to plant)
# Method in brief: as §1
# [3] = tested on: Digitaria sanguinalis (DIGSA); test: Test Example 1 pre-emergence herbicidal activity; conditions: Digitaria sanguinalis, 480 h, rate 250 g/ha, evaluated 20 days later, read-out: Pre-emergence activity DIGSA (100=total damage to plant; 0=no damage to plant)
# Method in brief: as §1
# [4] = tested on: Echinochloa crus-galli (ECHCG); test: Test Example 1 pre-emergence herbicidal activity; conditions: Echinochloa crus-galli, 480 h, rate 250 g/ha, evaluated 20 days later, read-out: Pre-emergence activity ECHCG (100=total damage to plant; 0=no damage to plant)
# Method in brief: as §1
# [5] = tested on: Lolium perenne (LOLPE); test: Test Example 1 pre-emergence herbicidal activity; conditions: Lolium perenne, 480 h, rate 250 g/ha, evaluated 20 days later, read-out: Pre-emergence activity LOLPE (100=total damage to plant; 0=no damage to plant)
# Method in brief: as §1
# [6] = tested on: Setaria faberi (SETFA); test: Test Example 1 pre-emergence herbicidal activity; conditions: Setaria faberi, 480 h, rate 250 g/ha, evaluated 20 days later, read-out: Pre-emergence activity SETFA (100=total damage to plant; 0=no damage to plant)
# Method in brief: as §1
# [7] = tested on: Alopecurus myosuroides (ALOMY); test: Test Example 1 post-emergence herbicidal activity; conditions: 360 h, rate 125 g/ha, evaluated 15 days later, read-out: Post-emergence activity ALOMY (100=total damage to plant; 0=no damage to plant)
# Method in brief: as §1
# [8] = tested on: Avena fatua (AVEFA); test: Test Example 1 post-emergence herbicidal activity; conditions: 360 h, rate 125 g/ha, evaluated 15 days later, read-out: Post-emergence activity AVEFA (100=total damage to plant; 0=no damage to plant)
# Method in brief: as §1
# [9] = tested on: Digitaria sanguinalis (DIGSA); test: Test Example 1 post-emergence herbicidal activity; conditions: 360 h, rate 125 g/ha, evaluated 15 days later, read-out: Post-emergence activity DIGSA (100=total damage to plant; 0=no damage to plant)
# Method in brief: as §1
# [10] = tested on: Echinochloa crus-galli (ECHCG); test: Test Example 1 post-emergence herbicidal activity; conditions: 360 h, rate 125 g/ha, evaluated 15 days later, read-out: Post-emergence activity ECHCG (100=total damage to plant; 0=no damage to plant)
# Method in brief: as §1
# [11] = tested on: Lolium perenne (LOLPE); test: Test Example 1 post-emergence herbicidal activity; conditions: 360 h, rate 125 g/ha, evaluated 15 days later, read-out: Post-emergence activity LOLPE (100=total damage to plant; 0=no damage to plant)
# Method in brief: as §1
# [12] = tested on: Setaria faberi (SETFA); test: Test Example 1 post-emergence herbicidal activity; conditions: 360 h, rate 125 g/ha, evaluated 15 days later, read-out: Post-emergence activity SETFA (100=total damage to plant; 0=no damage to plant)
# Method in brief: as §1
Structure (SMILES),pest or weed control at 250 g/ha [1] [%],pest or weed control at 250 g/ha [2] [%],pest or weed control at 250 g/ha [3] [%],pest or weed control at 250 g/ha [4] [%],pest or weed control at 250 g/ha [5] [%],pest or weed control at 250 g/ha [6] [%],pest or weed control at 125 g/ha [7] [%],pest or weed control at 125 g/ha [8] [%],pest or weed control at 125 g/ha [9] [%],pest or weed control at 125 g/ha [10] [%],pest or weed control at 125 g/ha [11] [%],pest or weed control at 125 g/ha [12] [%]
CCc1cc(C)cc(CC)c1C1=C(O)[C@@H]2[C@@H]3O[C@@H](C[C@H]3c3ccc(C#N)cc3)[C@@H]2C1=O [Example T160],30,50,40,40,40,70,90,90,100,100,70,100
CCc1cc(C)cc(CC)c1C1=C(O)[C@@H]2[C@@H]3O[C@@H](C[C@H]3c3ccc(SC)cc3)[C@@H]2C1=O [Example T162],70,70,40,80,90,10,90,90,100,100,70,100
CCc1cc(C)cc(CC)c1C1=C(O)[C@@H]2[C@@H]3O[C@@H](C[C@H]3c3ccc(F)cc3F)[C@@H]2C1=O [Example T163],70,60,90,80,90,90,80,80,70,100,80,90
CCc1cc(C)cc(CC)c1C1=C(O)[C@@H]2[C@@H]3O[C@@H](C[C@H]3c3ccc([N+](=O)[O-])cc3Cl)[C@@H]2C1=O [Example T167],30,40,30,50,40,0,80,50,70,100,50,70
CCc1cc(C)cc(CC)c1C1=C(O)[C@@H]2[C@@H]3O[C@@H](C[C@H]3c3cc(C(F)(F)F)ccc3Cl)[C@@H]2C1=O [Example T169],20,30,0,0,40,0,90,10,40,80,30,60
CCc1cc(C)cc(CC)c1C1=C(O)[C@@H]2[C@@H]3O[C@@H](C[C@H]3c3ccc(C(C)=O)cc3)[C@@H]2C1=O [Example T171],30,0,40,70,10,70,70,60,80,100,20,90
CCc1cc(C)cc(CC)c1C1=C(O)[C@@H]2[C@@H]3O[C@@H](C[C@H]3c3cc(F)cc(F)c3)[C@@H]2C1=O [Example T173],90,70,70,70,100,60,100,90,70,100,90,90
